Source: article PMC6299481, “Deciphering the Evolution of Cephalosporin Resistance to Ceftolozane-Tazobactam in Pseudomonas aeruginosa” (mBio, 2018)

How the values were obtained:
[1] = target: T1, PDC-3 β-lactamase (Pseudomonas aeruginosa, UniProt P24735, T105A); assay: Thermal denaturation by circular dichroism; assay type: binding; details: 10 μM PDC-3 with 200 μM inhibitor; CD, 20 to 80°C
T1 construct: produces the corresponding PDC-3 protein without its signal peptide; made in house; host or cells: E. coli Origami 2 DE3, pET24a (+) blaPDC-3
Protocol: (§1) Circular dichroism (CD) experiments were carried out in a Jasco (Easton, MD) J-815 spectrometer with a Peltier effect temperature controller. Quartz cells with a 0.1-cm path length were used for all experiments.
(§2) PDC-3 enzyme and the E221K variant (10 μM) with or without S02030 or LP-06 (200 μM) were monitored for thermal denaturation by CD at λ215 and λ221 between 20 and 80°C with a heating rate of 2°C/min. Two-state behavior was indicated by identical curves at each wavelength. Raw equilibrium denaturation data were normalized to the fraction of denatured protein (fU). With the assumption of a reversible two-state transition (N ↔ U), equilibrium constants (Keq) at any given temperature were calculated, as previously described ([32]), using equation 4 (4) Keq=fU/(1−fU)
(§3) The melting temperature Tm was determined at the midpoint of equilibrium folding (T = Tm) when ΔG = 0. (5) ln Keq=1/T (−ΔH/R)+ΔS/R
(§4) The free energy of unfolding was determined as previously described using the equation ΔΔGu = ΔTmΔSu^PDC-3 (Schellman), where ΔSu^PDC-3 = 0.326 ± 0.02 Kcal mol^−1 K^−1.

[2] = target: T2, E221K variant of PDC-3 β-lactamase (Pseudomonas aeruginosa, UniProt P24735, E247K/T105A); assay: Thermal denaturation by circular dichroism; assay type: binding; details: 10 μM E221K with 200 μM inhibitor; CD, 20 to 80°C
T2 construct: produces the corresponding PDC-3 protein without its signal peptide; made in house; host or cells: E. coli Origami 2 DE3, pET24a (+) blaPDC-3-E221K
Protocol: as §1, §2, §3, §4

[3] = test system: E. coli DH10B pBC SK blaPDC-3 E221K; assay: MIC, MH agar dilution (CLSI); assay type: cell-based, Escherichia coli; details: strain expressing E221K, highest MICs among variant strains
Protocol: Variant genes were synthesized into the pBC SK (-) vector by Celtek Bioscience (Franklin, TN). Mueller-Hinton (MH) agar-dilution MIC measurements were performed against isogenic transformants producing PDC-3 and nine variants of PDC-3 in pBC SK (-) according to the Clinical and Laboratory Standards Institute (CLSI) guidelines as previously described ([39], [48]). Avibactam, LP-06, and S02030 were tested at a constant 4 µg/ml in combination with various concentrations of ceftazidime. Piperacillin-tazobactam was maintained at a ratio of 8 piperacillin to 1 tazobactam. Ceftolozane-tazobactam was maintained at a ratio of 2 ceftolozane to 1 tazobactam. The MICs are reported as the concentrations at which bacterial growth was no longer observed. All MIC measurements were performed at least three times.

[4] = target: T1, PDC-3 β-lactamase; assay: BATSI inhibition kinetics (IC50), nitrocefin reporter; assay type: biochemical; details: PDC-3 (1.5 nM); 5-min preincubation; 100 μM nitrocefin reporter substrate
Protocol: (§5) Because of the time-dependent inhibition observed previously with some of the chiral boronates ([43]), the BATSIs were preincubated with enzyme for 5 min in phosphate-buffered saline before initiation of the reaction with the addition of substrate. The initial velocity (0 to 10 s) was measured in the presence of a constant concentration of enzyme (1.5 nM PDC-3 and 20 nM E221K) and increasing concentrations of the inhibitors against the fixed concentration (100 μM) of the indicator substrate, nitrocefin. The IC50 is the concentration of inhibitor that reduces the velocity by 50%. IC50 values were determined by fitting the initial velocity (v0) measurements to equation 2.(2) v0= Vmax[S]/Km[1+ I/IC50]+[S]

[5] = target: T2, E221K variant of PDC-3 β-lactamase; assay: as above; assay type: biochemical; details: E221K (20 nM); 5-min preincubation; 100 μM nitrocefin reporter substrate
Protocol: as §5

T1 sequence (P24735 27-397 T105A): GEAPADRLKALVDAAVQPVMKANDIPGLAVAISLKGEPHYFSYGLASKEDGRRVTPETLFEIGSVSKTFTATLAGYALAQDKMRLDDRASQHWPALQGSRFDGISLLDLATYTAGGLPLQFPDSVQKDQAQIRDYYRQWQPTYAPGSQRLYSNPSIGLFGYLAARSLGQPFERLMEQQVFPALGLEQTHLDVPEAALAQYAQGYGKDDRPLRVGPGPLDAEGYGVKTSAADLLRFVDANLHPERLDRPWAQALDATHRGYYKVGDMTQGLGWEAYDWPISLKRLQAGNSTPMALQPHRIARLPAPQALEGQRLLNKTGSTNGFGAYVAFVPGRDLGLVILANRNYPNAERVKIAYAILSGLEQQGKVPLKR
T2 sequence (P24735 27-397 T105A/E247K): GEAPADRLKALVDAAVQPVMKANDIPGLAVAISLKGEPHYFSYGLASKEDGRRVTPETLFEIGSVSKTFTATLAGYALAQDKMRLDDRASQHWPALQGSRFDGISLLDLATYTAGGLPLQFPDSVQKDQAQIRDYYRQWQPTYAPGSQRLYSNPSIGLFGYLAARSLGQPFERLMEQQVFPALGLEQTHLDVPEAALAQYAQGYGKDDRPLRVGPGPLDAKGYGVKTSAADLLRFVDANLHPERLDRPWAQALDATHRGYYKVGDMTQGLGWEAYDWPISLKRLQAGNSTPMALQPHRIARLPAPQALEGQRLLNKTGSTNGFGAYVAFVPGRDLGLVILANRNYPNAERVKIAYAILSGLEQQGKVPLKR

## O=C(Cc1cccs1)N[C@@H](Cn1cc(C(=O)O)nn1)B(O)O [S02030]
[1]
  increase in thermal stability (Tm) on inhibitor binding: 6 °C
[2]
  increase in thermal stability (Tm) on inhibitor binding: 3 to 4 °C
[3]
  MICs of ceftolozane and ceftazidime combined with BATSI: 8 to 16 mg/L
[4]
  IC50: 62 ± 2 nM
[5]
  IC50: 769 ± 30 nM
